In patent US8541588B2, “Sulfonamide derivatives” (Pfizer Limited, priority 2009, dated 2013):

Biological target: T1, Nav1.7 (or SCN9A) channel; HEK cells stably transfected with hSCN9A (Homo sapiens, UniProt Q15858)
T1 construct: expressed in transfected cells
Experiment: Nav1.7 block, PatchXpress 7000 automated whole-cell voltage clamp, estimated IC50 (EIC50)
Type: cell-based
Settings: estimated IC50, PatchXpress platform

[1] = hSCN9A HEK cells, Examples 815-1040
[2] = hSCN9A HEK cells held at V1/2 of inactivation
[3] = hSCN9A HEK cells, Examples 283-814

T1 sequence (Q15858 whole entry): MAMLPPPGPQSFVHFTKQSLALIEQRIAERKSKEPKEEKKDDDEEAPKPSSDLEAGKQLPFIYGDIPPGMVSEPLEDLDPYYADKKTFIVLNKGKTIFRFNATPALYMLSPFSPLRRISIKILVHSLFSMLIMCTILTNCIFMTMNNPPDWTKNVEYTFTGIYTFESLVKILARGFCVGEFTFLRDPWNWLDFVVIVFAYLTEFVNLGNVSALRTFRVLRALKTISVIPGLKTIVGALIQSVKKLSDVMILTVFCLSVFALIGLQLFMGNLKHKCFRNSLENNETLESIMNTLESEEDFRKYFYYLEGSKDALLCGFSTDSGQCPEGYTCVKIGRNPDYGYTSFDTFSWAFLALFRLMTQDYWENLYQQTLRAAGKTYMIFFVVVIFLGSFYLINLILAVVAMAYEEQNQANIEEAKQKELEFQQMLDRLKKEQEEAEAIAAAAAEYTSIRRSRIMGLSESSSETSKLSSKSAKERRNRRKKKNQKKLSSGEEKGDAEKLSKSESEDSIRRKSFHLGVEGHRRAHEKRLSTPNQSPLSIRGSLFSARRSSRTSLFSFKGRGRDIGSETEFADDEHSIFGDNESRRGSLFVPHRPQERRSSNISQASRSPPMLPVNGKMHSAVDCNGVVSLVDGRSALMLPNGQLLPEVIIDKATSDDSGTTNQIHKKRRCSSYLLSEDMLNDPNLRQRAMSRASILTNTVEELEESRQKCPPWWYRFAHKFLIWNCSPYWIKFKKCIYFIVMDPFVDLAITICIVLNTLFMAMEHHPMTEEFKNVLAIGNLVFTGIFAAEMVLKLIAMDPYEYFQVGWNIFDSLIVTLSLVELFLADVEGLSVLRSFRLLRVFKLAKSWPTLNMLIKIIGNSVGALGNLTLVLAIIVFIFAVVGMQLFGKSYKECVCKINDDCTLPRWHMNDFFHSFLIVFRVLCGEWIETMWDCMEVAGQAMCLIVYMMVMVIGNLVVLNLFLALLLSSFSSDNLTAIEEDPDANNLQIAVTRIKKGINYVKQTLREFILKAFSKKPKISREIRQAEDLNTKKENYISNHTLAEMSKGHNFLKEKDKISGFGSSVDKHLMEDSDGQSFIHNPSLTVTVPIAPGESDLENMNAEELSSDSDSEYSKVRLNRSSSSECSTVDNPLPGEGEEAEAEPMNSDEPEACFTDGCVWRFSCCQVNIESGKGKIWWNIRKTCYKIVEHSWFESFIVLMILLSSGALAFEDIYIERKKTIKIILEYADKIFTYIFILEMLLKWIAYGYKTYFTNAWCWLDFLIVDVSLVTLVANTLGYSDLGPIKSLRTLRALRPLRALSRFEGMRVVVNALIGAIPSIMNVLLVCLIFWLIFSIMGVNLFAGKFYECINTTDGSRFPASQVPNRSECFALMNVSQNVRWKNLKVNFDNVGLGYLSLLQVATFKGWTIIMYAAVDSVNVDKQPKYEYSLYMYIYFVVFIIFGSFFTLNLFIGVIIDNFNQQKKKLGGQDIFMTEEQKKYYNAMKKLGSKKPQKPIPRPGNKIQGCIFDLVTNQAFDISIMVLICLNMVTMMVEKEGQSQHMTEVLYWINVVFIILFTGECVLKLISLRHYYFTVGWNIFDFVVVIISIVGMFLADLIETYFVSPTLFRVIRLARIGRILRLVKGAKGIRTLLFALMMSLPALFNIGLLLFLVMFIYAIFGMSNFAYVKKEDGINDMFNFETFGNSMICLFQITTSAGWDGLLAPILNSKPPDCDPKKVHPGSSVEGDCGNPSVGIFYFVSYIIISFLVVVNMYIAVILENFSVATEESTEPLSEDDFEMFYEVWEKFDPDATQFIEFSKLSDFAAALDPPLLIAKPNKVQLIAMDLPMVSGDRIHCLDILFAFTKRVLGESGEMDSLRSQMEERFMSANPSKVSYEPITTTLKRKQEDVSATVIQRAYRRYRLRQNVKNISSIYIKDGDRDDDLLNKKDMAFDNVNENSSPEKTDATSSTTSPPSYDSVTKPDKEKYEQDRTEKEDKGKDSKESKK

Molecule	IC50 [3]	further results
O=S(=O)(Nc1ncns1)c1ccc(Oc2ccc(OC(F)(F)F)cc2-c2ccn[nH]2)c(F)c1 [Example 829, 3-fluoro-4-[2-(1H-pyrazol-5-yl)-4-(trifluoromethoxy)phenoxy]-N-1,2,4-thiadiazol-5-ylbenzenesulfonamide]		IC50 [1]: 34 nM
Cn1nccc1-c1cc(Cl)ccc1Oc1ccc(S(=O)(=O)Nc2nccs2)cc1C#N [Example 170, 4-[4-Chloro-2-(1-methyl-1H-pyrazol-5-yl)phenoxy]-3-cyano-N-1,3-thiazol-2-ylbenzenesulfonamide]		IC50 [2]: 10 nM
CN1CC(n2nccc2-c2cc(C(F)(F)F)ccc2Oc2cc(F)c(S(=O)(=O)Nc3cscn3)cc2F)C1 [Example 1023, 2,5-Difluoro-4-{2-[1-(1-methylazetidin-3-yl)-1H-pyrazol-5-yl]-4-(trifluoromethyl)phenoxy}-N-1,3-thiazol-4-ylbenzenesulfonamide]		IC50 [1]: 4 nM
Cc1c(Cl)ccc(Oc2ccc(S(=O)(=O)Nc3nccs3)cc2F)c1-c1nnco1 [Example 244, 4-(4-chloro-3-methyl-2-[1,3,4]oxadiazol-2-yl-phenoxy)-3-fluoro-N-thiazol-2-yl-benzenesulfonamide]		IC50 [2]: 1790 nM
Cn1nccc1-c1c(F)cccc1Oc1ccc(S(=O)(=O)Nc2ncns2)cc1C#N [Example 86, 3-cyano-4-[3-fluoro-2-(1-methyl-1H-pyrazol-5-yl)phenoxy]-N-1,2,4-thiadiazol-5-ylbenzenesulfonamide]		IC50 [2]: 1880 nM
N#Cc1cc(S(=O)(=O)Nc2nccs2)ccc1Oc1cccc(-c2ccn[nH]2)c1 [Example 444, 3-cyano-4-[3-(1H-pyrazol-5-yl)phenoxy]-N-1,3-thiazol-2-ylbenzenesulfonamide]	9900 nM	
Nc1ccc(-c2cc(Cl)ccc2Oc2cc(F)c(S(=O)(=O)Nc3ncns3)cc2F)cn1 [Example 410, 4-[2-(6-aminopyridin-3-yl)-4-chlorophenoxy]-2,5-difluoro-N-1,2,4-thiadiazol-5-ylbenzenesulfonamide]	29 nM	
N#Cc1cc(S(=O)(=O)Nc2ncns2)ccc1Oc1ccc(Cl)cc1-c1ccon1 [Example 880, 4-(4-chloro-2-isoxazol-3-ylphenoxy)-3-cyano-N-1,2,4-thiadiazol-5-ylbenzenesulfonamide]		IC50 [1]: 110 nM
Cc1cc(Oc2ccc(S(=O)(=O)Nc3ncc(Cl)s3)cc2C#N)n(C2CCCCC2)n1 [Example 143, N-(5-chloro-1,3-thiazol-2-yl)-3-cyano-4-[(1-cyclohexyl-3-methyl-1H-pyrazol-5-yl)oxy]benzenesulfonamide]		IC50 [2]: >10000 nM
O=S(=O)(Nc1ncns1)c1cc(Cl)c(Oc2ccc(OC(F)F)cc2C2CCNCC2)cc1F [Example 412, 5-chloro-4-[4-(difluoromethoxy)-2-piperidin-4-ylphenoxy]-2-fluoro-N-1,2,4-thiadiazol-5-ylbenzenesulfonamide]	2.5 nM	
N#Cc1cc(S(=O)(=O)Nc2cscn2)ccc1Oc1ccc(Cl)cc1-n1cnc(C(F)(F)F)c1 [Example 397, 4-{4-chloro-2-[4-(trifluoromethyl)-1H-imidazol-1-yl]phenoxy}-3-cyano-N-1,3-thiazol-4-ylbenzenesulfonamide]	>1000 nM	
Cc1nnc(NS(=O)(=O)c2ccc(Oc3ccc(Cl)cc3-c3ccnn3C)c(C#N)c2)s1 [Example 888, 4-[4-chloro-2-(1-methyl-1H-pyrazol-5-yl)phenoxy]-3-cyano-N-(5-methyl-1,3,4-thiadiazol-2-yl)benzenesulfonamide]		IC50 [1]: 920 nM
Nc1cc(-c2cc(Cl)ccc2Oc2ccc(S(=O)(=O)Nc3cccnn3)cc2Cl)ccn1 [Example 1014, 4-[2-(2-aminopyridin-4-yl)-4-chlorophenoxy]-3-chloro-N-pyridazin-3-ylbenzenesulfonamide]		IC50 [1]: 10 nM
CCn1nc(C(F)(F)F)cc1-c1ccc(Oc2ccc(S(=O)(=O)Nc3cscn3)cc2C#N)cc1 [Example 401, 3-cyano-4-{4-[1-ethyl-3-(trifluoromethyl)-1H-pyrazol-5-yl]phenoxy}-N-1,3-thiazol-4-ylbenzenesulfonamide]	2700 nM	
N#Cc1cc(S(=O)(=O)Nc2ncns2)ccc1Oc1cc(C(F)(F)F)nn1-c1ccccc1 [Example 81, 3-cyano-4-{[1-phenyl-3-(trifluoromethyl)-1H-pyrazol-5-yl]oxy}-N-1,2,4-thiadiazol-5-ylbenzenesulfonamide]		IC50 [2]: 510 nM
CN(C)c1n[nH]cc1-c1cc(Cl)ccc1Oc1cc(F)c(S(=O)(=O)Nc2cscn2)cc1Cl [Example 860, 5-chloro-4-{4-chloro-2-[3-(dimethylamino)-1H-pyrazol-4-yl]phenoxy}-2-fluoro-N-1,3-thiazol-4-ylbenzenesulfonamide]		IC50 [1]: 170 nM
O=S(=O)(Nc1nccs1)c1ccc(Oc2cnn(Cc3ccc(Cl)cc3)c2)c(F)c1 [Example 235, 4-(1-(4-chlorobenzyl)-1H-pyrazol-4-yloxy)-3-fluoro-N-(thiazol-2-yl)benzenesulfonamide]		IC50 [2]: 760 nM
Cc1cc(OC(C)C)ccc1-c1ccccc1Oc1ccc(S(=O)(=O)Nc2ncns2)cc1C#N [Example 4, 3-cyano-4-[(4′-isopropoxy-2′-methylbiphenyl-2-yl)oxy]-N-1,2,4-thiadiazol-5-ylbenzenesulfonamide]		IC50 [2]: 1710 nM
N#Cc1cc(S(=O)(=O)Nc2nccs2)ccc1Oc1ccc(Cl)cc1-n1cnnn1 [Example 416, 4-(4-chloro-2-(1H-tetrazol-1-yl)phenoxy)-3-cyano-N-(thiazol-2-yl)benzenesulfonamide]	1600 nM	
4-(4-chloro-2-piperidin-4-ylphenoxy)-2,5-difluoro-N-1,2,4-thiadiazol-5-ylbenzenesulfonamide [Example 636]	8.4 nM	

More lines, main results first:

IC50 [3]	Molecule	further results
>1000 nM	Cc1cc(C)n(-c2ccc(Oc3ccc(S(=O)(=O)Nc4nccs4)c(F)c3)cc2)n1 [Example 610, 4-[4-(3,5-Dimethyl-1H-pyrazol-1-yl)phenoxy]-2-fluoro-N-1,3-thiazol-2-ylbenzenesulfonamide]	
>1000 nM	N#Cc1cc(S(=O)(=O)Nc2nccs2)ccc1Oc1ccc(-n2cc(Cl)cn2)c(C(=O)O)c1 [Example 497, 2-(4-chloro-1H-pyrazol-1-yl)-5-{2-cyano-4-[(1,3-thiazol-2-ylamino)sulfonyl]phenoxy}benzoic acid]	
400 nM	Cn1nccc1-c1cc(Cl)ccc1Oc1ccc(S(=O)(=O)Nc2ccc(F)cn2)cc1C#N [Example 608, 4-[4-chloro-2-(1-methyl-1H-pyrazol-5-yl)phenoxy]-3-cyano-N-(5-fluoropyridin-2-yl)benzenesulfonamide]	
100 nM	O=S(=O)(Nc1cscn1)c1cc(F)c(Oc2ccc(Cl)cc2-c2cn[nH]c2)cc1F [Example 605, 4-[4-chloro-2-(1H-pyrazol-4-yl)phenoxy]-2,5-difluoro-N-1,3-thiazol-4-ylbenzenesulfonamide]	
280 nM	N#Cc1cncc(-c2cc(C(F)(F)F)ccc2Oc2cc(F)c(S(=O)(=O)Nc3ncns3)cc2Cl)c1 [Example 616, 5-chloro-4-[2-(5-cyanopyridin-3-yl)-4-(trifluoromethyl)phenoxy]-2-fluoro-N-1,2,4-thiadiazol-5-ylbenzenesulfonamide]	
6.2 nM	O=S(=O)(Nc1ncns1)c1cc(F)c(Oc2ccc(C(F)(F)F)cc2-c2ccnnc2)cc1F [Example 805, 2,5-difluoro-4-[2-pyridazin-4-yl-4-(trifluoromethyl)phenoxy]-N-1,2,4-thiadiazol-5-ylbenzenesulfonamide]	
